For eleven molecules, inhibition and IC50 results are on record in ChEMBL document CHEMBL3259747, “Small chemicals with inhibitory effects on PtdIns(3,4,5)P3 binding of Btk PH domain” (Bioorg Med Chem Lett, 2014).

For experiment [1], the target named is T1, Tyrosine-protein kinase BTK (Homo sapiens, UniProt Q06187). Put plainly: Inhibition of PtdIns(3,4,5)P3 binding to Btk PH domain (unknown origin) expressed in Escherichia coli BL21(DE3) RIL cells at 100 uM by surface plasmon resonance assay relative to untreated control.
A further experiment concerns the target T2, Epsin-1 (Homo sapiens, UniProt Q9Y6I3).
T2 sequence (Q9Y6I3 whole entry): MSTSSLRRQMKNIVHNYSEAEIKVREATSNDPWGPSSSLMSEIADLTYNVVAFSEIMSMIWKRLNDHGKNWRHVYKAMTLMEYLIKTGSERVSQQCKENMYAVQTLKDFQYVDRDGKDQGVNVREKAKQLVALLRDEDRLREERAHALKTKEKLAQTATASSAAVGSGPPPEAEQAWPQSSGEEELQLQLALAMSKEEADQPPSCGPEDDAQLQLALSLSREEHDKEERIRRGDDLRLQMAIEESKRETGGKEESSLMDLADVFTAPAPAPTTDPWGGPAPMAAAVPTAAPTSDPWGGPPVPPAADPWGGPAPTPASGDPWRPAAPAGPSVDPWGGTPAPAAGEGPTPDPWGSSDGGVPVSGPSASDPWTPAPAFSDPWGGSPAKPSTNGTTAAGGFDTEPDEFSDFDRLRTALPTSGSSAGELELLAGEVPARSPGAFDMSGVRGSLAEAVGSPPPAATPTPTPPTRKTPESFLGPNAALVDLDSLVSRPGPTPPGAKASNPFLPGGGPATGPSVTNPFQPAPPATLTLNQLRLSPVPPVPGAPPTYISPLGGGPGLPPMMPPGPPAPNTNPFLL
Put plainly: Inhibition of PtdIns(4,5)P2 binding to Epsin1 ENTH domain (unknown origin).

Experiment [2] deals with T1, Tyrosine-protein kinase BTK. As to the kind of experiment: Inhibition of PtdIns(3,4,5)P3 binding to Btk PH domain (unknown origin) expressed in Escherichia coli BL21(DE3) RIL cells by surface plasmon resonance assay relative to untreated control. (Surface plasmon resonance follows binding to a sensor surface in real time, without labels.)

T1 sequence (Q06187 whole entry, the tested form may be a part): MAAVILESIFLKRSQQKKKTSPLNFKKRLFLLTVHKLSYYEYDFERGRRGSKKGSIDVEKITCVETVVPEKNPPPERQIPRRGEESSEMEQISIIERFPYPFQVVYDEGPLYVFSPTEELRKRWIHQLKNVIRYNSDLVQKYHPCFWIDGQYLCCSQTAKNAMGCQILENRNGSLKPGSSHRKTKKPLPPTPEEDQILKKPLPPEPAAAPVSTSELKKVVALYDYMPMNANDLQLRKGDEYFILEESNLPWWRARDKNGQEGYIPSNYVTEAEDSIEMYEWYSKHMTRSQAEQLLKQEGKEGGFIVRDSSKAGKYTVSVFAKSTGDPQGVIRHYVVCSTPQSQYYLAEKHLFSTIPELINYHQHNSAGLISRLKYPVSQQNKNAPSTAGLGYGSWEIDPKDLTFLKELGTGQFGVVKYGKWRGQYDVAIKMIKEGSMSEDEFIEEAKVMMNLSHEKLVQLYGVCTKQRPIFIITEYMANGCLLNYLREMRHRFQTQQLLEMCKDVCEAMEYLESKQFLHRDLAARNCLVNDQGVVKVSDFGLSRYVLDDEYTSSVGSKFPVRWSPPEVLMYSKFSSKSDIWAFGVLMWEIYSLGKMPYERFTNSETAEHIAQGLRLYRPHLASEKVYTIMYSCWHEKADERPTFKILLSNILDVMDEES

In experiment [1], `O=C1[C@@H]2C[C@H]3CC[C@@]2(O3)[C@@H](P(=O)(O)O)N1Cc1ccccc1` returned an inhibition of 38%. On the same count and under the same terms, to `CCOP(=O)(O)c1cc(C(=O)O)[nH]n1` belongs 37%; to `COP(=O)(O)C1=NNC(C)(C(=O)O)C1` (stereo not drawn), 52%. Still for that read-out and setting: to `O=C1[C@@H]2C[C@@H]3O[C@]2(C(O)C3O)[C@@H](P(=O)(O)O)N1Cc1ccccc1` (stereo partly drawn) belongs 13%. Same read-out and setting: to `COP(=O)(O)c1cc(C(=O)O)[nH]n1` belongs 48%.

With `O=C(O)c1cc(P(=O)(O)O)n[nH]1`, the values for the half-maximal inhibitory concentration (IC50) (on Epsin-1; in experiment [2]) were 46 µM and 17 µM, respectively. The same molecule came in with an inhibition in experiment [1] of 95%. In experiment [1], `O=C1[C@@H]2C[C@@H]3O[C@]2(C(O)C3OP(=O)(O)O)[C@@H](P(=O)(O)O)N1Cc1ccccc1` (stereo partly drawn) registered an inhibition of 11%. The same measure, in the same setting: with `CCOP(=O)(O)c1n[nH]c(C(=O)O)c1C(=O)O` the figure was 34%; with `CC1(C(=O)O)NN=C(P(=O)(O)O)C1C(=O)O` (stereo not drawn), 64%; with `CCOP(=O)(O)C1=NNC(C)(C(=O)O)C1` (stereo not drawn), 41%. Still for that read-out and setting: with `CC1(C(=O)O)CC([PH](=O)O)=NN1` (stereo not drawn) the figure was 71%.

By inhibition is commonly meant the percentage by which the read-out fell short of the control. A high value points to strong suppression. A word on the IC50: it is the concentration at which inhibition is half-maximal. A lower IC50 goes with higher potency.
